Experimental data from ChEMBL document CHEMBL1133142, “Synthesis of dolichyl phosphate derivatives with fluorescent label at the omega-end of the chain, new tools to study protein glycosylation” (Bioorg Med Chem Lett, 2000).

How the values were obtained:
Saccharomyces cerevisiae [1] = assay: Tested for the kinetic constant (Km) against the enzyme Dolichyl phosphate mannose synthase
Saccharomyces cerevisiae [2] = assay: Tested for the kinetic parameter relative Kcat on Dolichyl phosphate mannose synthase

- Km (Saccharomyces cerevisiae [1]): 11.7 µM
- k cat (Saccharomyces cerevisiae [2]): 1.27
SMILES: C/C(=C\CC/C(C)=C/CC/C(C)=C/CC/C(C)=C/CC/C(C)=C/CC/C(C)=C/CC/C(C)=C/CCC(C)CCOP(=O)(O)O)CC/C=C(\C)CC/C=C(\C)CC/C=C(\C)CC/C=C(\C)CC/C=C(\C)CC/C=C(\C)CC/C=C(\C)CCCNc1cccc2ccccc12 (configuration not stated)
